Experimental data: patent US20250319189A1, “GANCICLOVIR COMPOSITIONS AND RELATED METHODS” (Exela Pharma Sciences, LLC, priority 2013, published 2025)
Like-named read-outs stand apart in the source and are kept apart here.

Legend:
[1] = Stability of aqueous formulation on shelf storage / accelerated storage; format: physicochemical
[2] = Particulate matter in aqueous solution (USP requirements); format: physicochemical; settings: aqueous solution of ganciclovir base at about or below about 3 mg/ml
Source text: As used herein, the term “particulate-matter-free” or its grammatical equivalents such as “particle free” refer to the state in which the composition of the present invention meets the USP requirements for particulate matter in parenteral solutions. See for example, USP XXXII, Chapter 788. One of skill in the art understands and knows how to assess whether a given composition meets USP particulate matter requirements.

[3] = cited from earlier work
[4] = cited from earlier work; remark: listed apart in the source

Row | retained initial concentration of ganciclovir ([1]; aqueous solution at about or below about 3 mg/ml, accelerated storage or stability testing conditions) | stability for extended shelf-storage ([1]; aqueous solution of ganciclovir base at concentrations of about or below about 3 mg/ml) | Compound | particulate matter [2] | solubility in water [3] | solubility in water ([3]; listed as Ganciclovir sodium salt) | stability in an aqueous formulation (prolonged shelf-storage) [4]
1 | at least 95% | stable for extended shelf-storage | Nc1nc2c(ncn2COC(CO)CO)c(=O)[nH]1 [ganciclovir base, 9-(1,3-dihydroxy-2-propoxymethyl)guanine] | free or substantially free of particulate matter | limited solubility in water |  | 
2 |  |  | Nc1nc(O)c2ncn(COC(CO)CO)c2n1 [ganciclovir sodium] |  |  | very soluble in water | not sufficiently stable
